# Data as given in PubChem BioAssay (NCI).
#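 48-hour exposure; five concentrations; linearly interpolated endpoints. At the TGI there is no net growth.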
# Tests used:
# Assay in all cases: inhibition of tumour cell growth, NCI panel, 48 h
# SF-295 CNS = system: SF-295 CNS
# COLO 205 colon = system: COLO 205 colon
# SN12C renal = system: SN12C renal
# U251 CNS = system: U251 CNS
# RXF 393 renal = system: RXF 393 renal
# SNB-19 CNS = system: SNB-19 CNS
# PC-3 prostate = system: PC-3 prostate
# OVCAR-4 ovarian = system: OVCAR-4 ovarian
# UO-31 renal = system: UO-31 renal
# HT29 colon = system: HT29 colon
# SW-620 colon = system: SW-620 colon
# MALME-3M melanoma = system: MALME-3M melanoma
# OVCAR-5 ovarian = system: OVCAR-5 ovarian
# HCT-15 colon = system: HCT-15 colon
# MCF7 breast = system: MCF7 breast
# NCI-H23 lung = system: NCI-H23 lung
# A549 NSCLC = system: A549 NSCLC
# SR leukemia = system: SR leukemia
# ACHN renal = system: ACHN renal
# MDA-MB-435 = system: MDA-MB-435
# SK-MEL-2 melanoma = system: SK-MEL-2 melanoma
# NCI-H460 lung = system: NCI-H460 lung
# HCC-2998 colon = system: HCC-2998 colon
# MDA-N = system: MDA-N
# NCI/ADR-RES ovarian = system: NCI/ADR-RES ovarian
# BT-549 breast = system: BT-549 breast
# MOLT-4 leukemia = system: MOLT-4 leukemia
# NCI-H522 lung = system: NCI-H522 lung
# CAKI-1 renal = system: CAKI-1 renal
# SK-MEL-28 melanoma = system: SK-MEL-28 melanoma
# SNB-75 CNS = system: SNB-75 CNS
# HOP-92 NSCLC = system: HOP-92 NSCLC
# HCT-116 colon = system: HCT-116 colon
# UACC-62 melanoma = system: UACC-62 melanoma
# OVCAR-3 ovarian = system: OVCAR-3 ovarian
# 786-0 renal = system: 786-0 renal
# A498 renal = system: A498 renal
# SF-539 CNS = system: SF-539 CNS
# HOP-62 NSCLC = system: HOP-62 NSCLC
# UACC-257 melanoma = system: UACC-257 melanoma
# SK-OV-3 ovarian = system: SK-OV-3 ovarian
# M14 melanoma = system: M14 melanoma
# HL-60(TB) leukemia = system: HL-60(TB) leukemia
# CCRF-CEM leukemia = system: CCRF-CEM leukemia
# DU-145 prostate = system: DU-145 prostate
# KM12 colon = system: KM12 colon
# T-47D breast = system: T-47D breast
# SF-268 CNS = system: SF-268 CNS
# NCI-H226 lung = system: NCI-H226 lung
# RPMI-8226 leukemia = system: RPMI-8226 leukemia
# K-562 leukemia = system: K-562 leukemia
# OVCAR-8 ovarian = system: OVCAR-8 ovarian
# MDA-MB-231 breast = system: MDA-MB-231 breast
# EKVX NSCLC = system: EKVX NSCLC
# TK-10 renal = system: TK-10 renal
# HS 578T breast = system: HS 578T breast
# LOX IMVI melanoma = system: LOX IMVI melanoma
# IGROV1 ovarian = system: IGROV1 ovarian
# SK-MEL-5 melanoma = system: SK-MEL-5 melanoma
smiles,measurement,setting,value
O=c1[nH]nc(Cc2ccc(Cl)cc2)n1/N=C/c1ccco1,TGI,SF-295 CNS,> 100 µM
same,TGI,COLO 205 colon,> 100 µM
same,TGI,SN12C renal,> 100 µM
same,TGI,U251 CNS,> 100 µM
same,TGI,RXF 393 renal,91.7 µM
same,TGI,SNB-19 CNS,78.4 µM
same,TGI,PC-3 prostate,> 100 µM
same,TGI,OVCAR-4 ovarian,> 100 µM
same,TGI,UO-31 renal,> 100 µM
same,TGI,HT29 colon,> 100 µM
same,TGI,SW-620 colon,> 100 µM
same,TGI,MALME-3M melanoma,> 100 µM
same,TGI,OVCAR-5 ovarian,> 100 µM
same,TGI,HCT-15 colon,> 100 µM
same,TGI,MCF7 breast,> 100 µM
same,TGI,NCI-H23 lung,> 100 µM
same,TGI,A549 NSCLC,> 100 µM
same,TGI,SR leukemia,> 100 µM
same,TGI,ACHN renal,> 100 µM
same,TGI,MDA-MB-435,> 100 µM
same,TGI,SK-MEL-2 melanoma,> 100 µM
same,TGI,NCI-H460 lung,> 100 µM
same,TGI,HCC-2998 colon,> 100 µM
same,TGI,MDA-N,> 100 µM
same,TGI,NCI/ADR-RES ovarian,> 100 µM
same,TGI,BT-549 breast,> 100 µM
same,TGI,MOLT-4 leukemia,> 100 µM
same,TGI,NCI-H522 lung,> 100 µM
same,TGI,CAKI-1 renal,> 100 µM
same,TGI,SK-MEL-28 melanoma,> 100 µM
same,TGI,SNB-75 CNS,49.7 µM
same,TGI,HOP-92 NSCLC,> 100 µM
same,TGI,HCT-116 colon,> 100 µM
same,TGI,UACC-62 melanoma,> 100 µM
same,TGI,OVCAR-3 ovarian,> 100 µM
same,TGI,786-0 renal,> 100 µM
same,TGI,A498 renal,> 100 µM
same,TGI,SF-539 CNS,90.5 µM
same,TGI,HOP-62 NSCLC,> 100 µM
same,TGI,UACC-257 melanoma,> 100 µM
same,TGI,SK-OV-3 ovarian,> 100 µM
same,TGI,M14 melanoma,> 100 µM
same,TGI,HL-60(TB) leukemia,> 100 µM
same,TGI,CCRF-CEM leukemia,> 100 µM
same,TGI,DU-145 prostate,> 100 µM
same,TGI,KM12 colon,> 100 µM
same,TGI,T-47D breast,> 100 µM
same,TGI,SF-268 CNS,> 100 µM
same,TGI,NCI-H226 lung,> 100 µM
same,TGI,RPMI-8226 leukemia,> 100 µM
same,TGI,K-562 leukemia,> 100 µM
same,TGI,OVCAR-8 ovarian,> 100 µM
same,TGI,MDA-MB-231 breast,> 100 µM
same,TGI,EKVX NSCLC,> 100 µM
COc1cc2nc(Nc3cccc(Br)c3)nc(Nc3cccc(Br)c3)c2cc1OC,TGI,SF-295 CNS,32.7 µM
same,TGI,COLO 205 colon,27.7 µM
same,TGI,SN12C renal,31.4 µM
same,TGI,U251 CNS,35.7 µM
same,TGI,RXF 393 renal,33.7 µM
same,TGI,SNB-19 CNS,32.3 µM
same,TGI,PC-3 prostate,41.6 µM
same,TGI,OVCAR-4 ovarian,30.9 µM
same,TGI,UO-31 renal,29.4 µM
same,TGI,HT29 colon,34.8 µM
same,TGI,SW-620 colon,45.8 µM
same,TGI,MALME-3M melanoma,34.7 µM
same,TGI,OVCAR-5 ovarian,70.9 µM
same,TGI,HCT-15 colon,33.3 µM
same,TGI,MCF7 breast,32.4 µM
same,TGI,NCI-H23 lung,33.3 µM
same,TGI,A549 NSCLC,32.6 µM
same,TGI,TK-10 renal,39.3 µM
same,TGI,HS 578T breast,38.5 µM
same,TGI,ACHN renal,29.4 µM
same,TGI,MDA-MB-435,36 µM
same,TGI,SK-MEL-2 melanoma,36.1 µM
same,TGI,NCI-H460 lung,51.8 µM
same,TGI,HCC-2998 colon,44.6 µM
same,TGI,MDA-N,32.8 µM
same,TGI,NCI/ADR-RES ovarian,37.5 µM
same,TGI,BT-549 breast,30.7 µM
same,TGI,MOLT-4 leukemia,47.2 µM
same,TGI,NCI-H522 lung,32.4 µM
same,TGI,CAKI-1 renal,29.8 µM
same,TGI,SK-MEL-28 melanoma,33.5 µM
same,TGI,LOX IMVI melanoma,30.4 µM
same,TGI,IGROV1 ovarian,30.1 µM
same,TGI,SNB-75 CNS,31.8 µM
same,TGI,HOP-92 NSCLC,29.5 µM
same,TGI,HCT-116 colon,31.4 µM
same,TGI,UACC-62 melanoma,32.8 µM
same,TGI,OVCAR-3 ovarian,31.2 µM
same,TGI,786-0 renal,31 µM
same,TGI,HOP-62 NSCLC,33.6 µM
same,TGI,SK-OV-3 ovarian,34.4 µM
same,TGI,M14 melanoma,32.3 µM
same,TGI,CCRF-CEM leukemia,46.5 µM
same,TGI,DU-145 prostate,34.1 µM
same,TGI,KM12 colon,36.7 µM
same,TGI,T-47D breast,43.7 µM
same,TGI,SF-268 CNS,29.9 µM
same,TGI,SK-MEL-5 melanoma,30.7 µM
same,TGI,K-562 leukemia,62.2 µM
same,TGI,OVCAR-8 ovarian,31.6 µM
same,TGI,MDA-MB-231 breast,39.7 µM
same,TGI,EKVX NSCLC,39.8 µM
Oc1cc(O)c2ccc(-c3ccc(O)c(O)c3)[o+]c2c1,TGI,SN12C renal,> 100 µM
same,TGI,U251 CNS,> 100 µM
same,TGI,RXF 393 renal,> 100 µM
same,TGI,SNB-19 CNS,> 100 µM
same,TGI,PC-3 prostate,> 100 µM
same,TGI,OVCAR-4 ovarian,> 100 µM
same,TGI,UO-31 renal,> 100 µM
same,TGI,HT29 colon,> 100 µM
same,TGI,SW-620 colon,> 100 µM
same,TGI,MALME-3M melanoma,> 100 µM
same,TGI,OVCAR-5 ovarian,> 100 µM
same,TGI,HCT-15 colon,> 100 µM
same,TGI,MCF7 breast,> 100 µM
same,TGI,NCI-H23 lung,> 100 µM
same,TGI,A549 NSCLC,> 100 µM
same,TGI,TK-10 renal,> 100 µM
same,TGI,HS 578T breast,> 100 µM
same,TGI,ACHN renal,> 100 µM
same,TGI,MDA-MB-435,> 100 µM
same,TGI,SK-MEL-2 melanoma,> 100 µM
same,TGI,NCI-H460 lung,> 100 µM
same,TGI,HCC-2998 colon,> 100 µM
same,TGI,MDA-N,> 100 µM
same,TGI,NCI/ADR-RES ovarian,> 100 µM
same,TGI,BT-549 breast,> 100 µM
same,TGI,MOLT-4 leukemia,> 100 µM
same,TGI,NCI-H522 lung,> 100 µM
same,TGI,CAKI-1 renal,> 100 µM
same,TGI,SK-MEL-28 melanoma,> 100 µM
same,TGI,LOX IMVI melanoma,> 100 µM
same,TGI,IGROV1 ovarian,> 100 µM
same,TGI,SNB-75 CNS,> 100 µM
same,TGI,HOP-92 NSCLC,> 100 µM
same,TGI,HCT-116 colon,> 100 µM
same,TGI,UACC-62 melanoma,> 100 µM
same,TGI,OVCAR-3 ovarian,> 100 µM
same,TGI,786-0 renal,> 100 µM
same,TGI,A498 renal,> 100 µM
same,TGI,SF-539 CNS,> 100 µM
same,TGI,HOP-62 NSCLC,> 100 µM
same,TGI,UACC-257 melanoma,> 100 µM
same,TGI,SK-OV-3 ovarian,> 100 µM
same,TGI,M14 melanoma,> 100 µM
same,TGI,HL-60(TB) leukemia,> 100 µM
same,TGI,CCRF-CEM leukemia,> 100 µM
same,TGI,KM12 colon,> 100 µM
same,TGI,SF-268 CNS,> 100 µM
same,TGI,NCI-H226 lung,> 100 µM
same,TGI,RPMI-8226 leukemia,> 100 µM
same,TGI,K-562 leukemia,> 100 µM
same,TGI,OVCAR-8 ovarian,> 100 µM
same,TGI,EKVX NSCLC,> 100 µM
O=C(c1cc2ccccc2[nH]1)N1C2CCC1CN(CCOC(c1ccc(F)cc1)c1ccc(F)cc1)CC2 (stereo not given),TGI,SF-295 CNS,> 100 µM
same,TGI,COLO 205 colon,> 100 µM
same,TGI,SN12C renal,> 100 µM
same,TGI,U251 CNS,> 100 µM
same,TGI,RXF 393 renal,8.41 µM
same,TGI,SNB-19 CNS,> 100 µM
same,TGI,PC-3 prostate,> 100 µM
same,TGI,OVCAR-4 ovarian,> 100 µM
same,TGI,HT29 colon,> 100 µM
same,TGI,SW-620 colon,> 100 µM
same,TGI,MALME-3M melanoma,> 100 µM
same,TGI,OVCAR-5 ovarian,> 100 µM
same,TGI,HCT-15 colon,> 100 µM
same,TGI,MCF7 breast,> 100 µM
same,TGI,NCI-H23 lung,> 100 µM
same,TGI,A549 NSCLC,> 100 µM
same,TGI,TK-10 renal,> 100 µM
same,TGI,HS 578T breast,> 100 µM
same,TGI,ACHN renal,> 100 µM
same,TGI,MDA-MB-435,> 100 µM
same,TGI,SK-MEL-2 melanoma,> 100 µM
same,TGI,NCI-H460 lung,> 100 µM
same,TGI,HCC-2998 colon,> 100 µM
same,TGI,MDA-N,> 100 µM
same,TGI,NCI/ADR-RES ovarian,> 100 µM
same,TGI,BT-549 breast,> 100 µM
same,TGI,MOLT-4 leukemia,> 100 µM
same,TGI,NCI-H522 lung,> 100 µM
same,TGI,CAKI-1 renal,> 100 µM
same,TGI,SK-MEL-28 melanoma,> 100 µM
same,TGI,LOX IMVI melanoma,> 100 µM
same,TGI,IGROV1 ovarian,> 100 µM
same,TGI,SNB-75 CNS,> 100 µM
same,TGI,HOP-92 NSCLC,> 100 µM
same,TGI,HCT-116 colon,> 100 µM
same,TGI,UACC-62 melanoma,> 100 µM
same,TGI,OVCAR-3 ovarian,> 100 µM
same,TGI,786-0 renal,> 100 µM
same,TGI,A498 renal,> 100 µM
same,TGI,SF-539 CNS,> 100 µM
same,TGI,HOP-62 NSCLC,> 100 µM
same,TGI,UACC-257 melanoma,> 100 µM
same,TGI,SK-OV-3 ovarian,> 100 µM
same,TGI,M14 melanoma,> 100 µM
same,TGI,HL-60(TB) leukemia,> 100 µM
same,TGI,CCRF-CEM leukemia,> 100 µM
same,TGI,DU-145 prostate,> 100 µM
same,TGI,KM12 colon,> 100 µM
same,TGI,T-47D breast,> 100 µM
same,TGI,SF-268 CNS,> 100 µM
same,TGI,NCI-H226 lung,> 100 µM
same,TGI,SK-MEL-5 melanoma,> 100 µM
same,TGI,RPMI-8226 leukemia,> 100 µM
same,TGI,K-562 leukemia,> 100 µM
same,TGI,OVCAR-8 ovarian,> 100 µM
same,TGI,MDA-MB-231 breast,> 100 µM
same,TGI,EKVX NSCLC,> 100 µM
